Experimental findings from patent publication US11471537B2, “Oligomer extended insulin-Fc conjugates” (Novo Nordisk A/S, priority 2017, dated 2022) are described below.

The target of series [1] is insulin receptor A (Homo sapiens, UniProt P06213). In words: Insulin receptor affinity. The settings on record: relative to affinity of human insulin for insulin receptor A (100%). It is filed as binding.
Series [2] is described as follows: PK studies: intravenous and subcutaneous administration to SD rats, insulin-Fc concentrations by immuno-assay. The settings on record: for PK rat sc [T½ (h)] Mean Value: subcutaneous. The class given is in vivo. Here is the method: Insulin-Fc conjugates were tested in vivo by intravenous and subcutaneous administration to SD rats. Blood samples were collected and the insulin-Fc concentrations were measured by immuno-assay.

Series [3] deals with Sprague-Dawley rats. In words: PD studies: blood glucose after subcutaneous dosing. The class given is in vivo. The settings on record: sc, dose 30 nmol/kg. The method, boiled down: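 Normal male Sprague-Dawley rats (~350 g), fed ad libitum, received a single subcutaneous neck dose of 30 nmol/kg unless otherwise stated. Tongue-vein blood was sampled up to 10 days post-dose for blood glucose (Biosen analyser) and plasma insulin.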

Series [4] has as its system isolated rat adipocytes. In words: Insulin-stimulated lipogenesis. The settings on record: 1% HSA; relative to the activity of human insulin (100%). It is filed as cell-based. Here is the method: Insulin-stimulated lipogenesis was measured in isolated rat adipocytes in presence of 1% HSA as described in Moody A J, Stan M A, Stan M, Gliemann J. A Simple Free Fat Cell Bioassay for Insulin. Hormone And Metabolic Research. 1974; 6(1):12-6, see results in Table 6.

Values joined by “and” are separate entries in the source; they are usually repeats but may differ in a detail not shown here. Equal entries are not always repeated.

Chain of insulin receptor A (P06213 28-1370 isoform P06213-2 limits assumed): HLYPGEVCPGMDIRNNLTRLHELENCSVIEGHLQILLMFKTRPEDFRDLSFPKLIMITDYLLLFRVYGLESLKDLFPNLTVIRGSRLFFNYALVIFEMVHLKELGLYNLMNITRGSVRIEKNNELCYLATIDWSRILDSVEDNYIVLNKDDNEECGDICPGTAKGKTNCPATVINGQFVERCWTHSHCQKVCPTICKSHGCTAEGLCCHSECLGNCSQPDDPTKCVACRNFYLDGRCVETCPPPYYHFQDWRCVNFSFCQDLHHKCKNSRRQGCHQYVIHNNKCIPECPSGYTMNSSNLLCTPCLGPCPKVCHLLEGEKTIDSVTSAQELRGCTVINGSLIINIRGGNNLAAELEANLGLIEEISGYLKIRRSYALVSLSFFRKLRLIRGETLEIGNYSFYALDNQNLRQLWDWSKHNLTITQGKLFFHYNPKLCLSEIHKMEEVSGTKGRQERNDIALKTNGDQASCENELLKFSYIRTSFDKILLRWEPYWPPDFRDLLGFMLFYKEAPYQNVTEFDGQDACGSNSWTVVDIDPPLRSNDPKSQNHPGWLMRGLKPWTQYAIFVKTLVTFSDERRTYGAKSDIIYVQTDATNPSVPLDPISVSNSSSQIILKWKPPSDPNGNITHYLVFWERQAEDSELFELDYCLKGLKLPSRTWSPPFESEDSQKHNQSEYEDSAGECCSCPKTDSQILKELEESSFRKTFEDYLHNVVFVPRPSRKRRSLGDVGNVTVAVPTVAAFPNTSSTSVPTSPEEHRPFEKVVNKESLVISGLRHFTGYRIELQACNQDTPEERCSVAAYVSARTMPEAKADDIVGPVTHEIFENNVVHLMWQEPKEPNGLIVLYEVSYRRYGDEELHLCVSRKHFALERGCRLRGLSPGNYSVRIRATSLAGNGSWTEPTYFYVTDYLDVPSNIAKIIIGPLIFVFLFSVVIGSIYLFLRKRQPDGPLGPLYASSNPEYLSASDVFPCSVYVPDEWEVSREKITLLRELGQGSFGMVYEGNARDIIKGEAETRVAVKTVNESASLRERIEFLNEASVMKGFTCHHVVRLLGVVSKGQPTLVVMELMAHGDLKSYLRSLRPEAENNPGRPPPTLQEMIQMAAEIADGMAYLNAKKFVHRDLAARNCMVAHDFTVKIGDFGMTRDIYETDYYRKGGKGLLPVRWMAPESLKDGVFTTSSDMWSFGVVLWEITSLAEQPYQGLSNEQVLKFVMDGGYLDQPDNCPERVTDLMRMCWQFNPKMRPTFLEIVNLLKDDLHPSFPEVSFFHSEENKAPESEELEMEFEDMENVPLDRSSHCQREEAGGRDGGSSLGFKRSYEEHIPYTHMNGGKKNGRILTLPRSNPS
Chain of insulin receptor A (P06213 763-1382 partner limits assumed): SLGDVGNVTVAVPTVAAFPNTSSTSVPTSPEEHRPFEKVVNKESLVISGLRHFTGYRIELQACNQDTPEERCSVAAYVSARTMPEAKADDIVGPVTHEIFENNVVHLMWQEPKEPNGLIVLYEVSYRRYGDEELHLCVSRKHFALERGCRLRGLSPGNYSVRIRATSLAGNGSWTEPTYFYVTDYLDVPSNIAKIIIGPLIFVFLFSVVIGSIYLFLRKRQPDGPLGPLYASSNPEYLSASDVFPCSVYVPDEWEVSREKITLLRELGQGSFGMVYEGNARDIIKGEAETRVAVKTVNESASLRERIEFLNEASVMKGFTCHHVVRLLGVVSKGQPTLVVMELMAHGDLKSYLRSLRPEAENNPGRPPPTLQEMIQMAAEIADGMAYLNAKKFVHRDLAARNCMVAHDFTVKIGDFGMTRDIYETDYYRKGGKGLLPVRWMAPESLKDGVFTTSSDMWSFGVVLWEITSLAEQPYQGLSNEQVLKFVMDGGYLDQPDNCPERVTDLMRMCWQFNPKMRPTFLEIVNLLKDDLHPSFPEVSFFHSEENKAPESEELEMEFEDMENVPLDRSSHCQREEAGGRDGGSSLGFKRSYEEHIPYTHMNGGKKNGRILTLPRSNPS

For the substance “(A14E, A21G, A22(GQAP)18, A94G, A95Q, A96A, A97K^, A98P, B29R, desB30 human insulin)/(227A, 234A, 235K, 297E, 315Q, 384Q, des447 hIgG4-Fc(228-447))4-[bis[2-[(2-acetyl)amino]ethyl]amino]-4-oxo-butanoyl Conjugate [Example 5.26]”, in series [1], the “Insulin receptor affinity [IC50 relative to HI (%)] Mean Value” stood at 3.95%. Besides, the “PK rat iv [T½ (h)] Mean Value” in series [2] was 49.8 h. Also, in series [2], the “PK rat sc [T½ (h)] Mean Value” stood at 53.5 h. In addition, the Average blood glucose came out at 5.82 mM in series [3] (time 0 days); 5.984 mM in series [3] (time 0.041667 days); 5.3 mM in series [3] (time 0.125 days); 4.384 mM in series [3] (time 0.291667 days); 3.332 mM in series [3] (time 1 day); 4.992 mM in series [3] (time 2 days). Moreover, the Average blood glucose in series [3] (time 3 days) is 6.352 mM; in series [3] (time 4 days), 5.804 mM; in series [3] (time 5 days) it was 5.752 mM; in series [3] (time 6 days) it was 6.232 mM; in series [3] (time 7 days), 6.048 mM; in series [3] (time 8 days) it was 6.236 mM. Moreover, the Average blood glucose in series [3] (time 9 days) amounted to 5.972 mM; in series [3] (time 10 days), 5.88 mM. Further, the “Lipogenesis in rat adipocytes [Potency (%)] Mean Value” in series [4] was 3.23%.

Regarding “(A14E, A21G, A22(GQAP)19, A98K^, A99P, B25H, B29R, desB30 human insulin)/(227A, 234A, 235K, 297E, 315Q, 384Q, des447 hIgG4-Fc(228-447))4-[bis[2-[(2-acetyl)amino]ethyl]amino]-4-oxo-butanoyl Conjugate [Example 5.15]”, the “Insulin receptor affinity [IC50 relative to HI (%)] Mean Value” in series [1] is reported as 3.68%. In series [2], the “PK rat iv [T½ (h)] Mean Value” worked out at 58.4 h. In addition, in series [2], the “PK rat sc [T½ (h)] Mean Value” stood at 67.6 h. The Average blood glucose is recorded as 6.748 mM in series [3] (time 0 days); 6.168 mM in series [3] (time 0.041667 days); 5.052 mM in series [3] (time 0.125 days); 3.292 mM in series [3] (time 0.291667 days); 2.524 mM in series [3] (time 1 day); 2.752 mM in series [3] (time 2 days). For the same substance, the Average blood glucose in series [3] (time 3 days) turned out to be 4.116 mM; in series [3] (time 4 days), 5.744 mM; in series [3] (time 6 days), 6.32 mM; in series [3] (time 7 days), 6.516 mM; in series [3] (time 8 days), 5.904 mM. The “Lipogenesis in rat adipocytes [Potency (%)] Mean Value” in series [4] is 3.68%.

“(A14E, A21G, A22(GQAP)19, A98K^, A99P, B25H, B29R, desB30 human insulin)/(227A, 234A, 235K, 297E, 315Q, 384Q, des447 hIgG4-Fc(228-447))6-[bis[2-[(2-acetyl)amino]ethyl]amino]-6-oxo-hexanoyl conjugate [Example 5.16]”: the “Insulin receptor affinity [IC50 relative to HI (%)] Mean Value” in series [1] came out at 3.86%. The “PK rat iv [T½ (h)] Mean Value” in series [2] worked out at 25.7 h. Besides, the “PK rat sc [T½ (h)] Mean Value” in series [2] worked out at 36.2 h. For the same substance, the Average blood glucose in series [3] (time 0 days) is on record as 6.544 mM; in series [3] (time 0.041667 days), 5.972 mM; in series [3] (time 0.125 days), 4.74 mM; in series [3] (time 0.291667 days), 4.028 mM; in series [3] (time 1 day), 2.42 mM; in series [3] (time 2 days) it was 2.592 mM. The Average blood glucose in series [3] (time 3 days) is on record as 3.156 mM; in series [3] (time 4 days), 5.7 mM; in series [3] (time 6 days), 5.784 mM; in series [3] (time 7 days), 5.848 mM; in series [3] (time 8 days), 5.72 mM. Also, in series [4], the “Lipogenesis in rat adipocytes [Potency (%)] Mean Value” was 4.34%.

“(A14E, A21G, A22(GQAP)24, A118G, A119Q, A120A, A121K^, A122P, B25H, B29R, desB30 human insulin)/(227A, 234A, 235K, 297E, 315Q, 384Q, des447 hIgG4-Fc(228-447))4-[bis[2-[(2-acetyl)amino]ethyl]amino]-4-oxo-butanoyl Conjugate [Example 5.23]”: the “Insulin receptor affinity [IC50 relative to HI (%)] Mean Value” in series [1] was found to be 4.70%. The “PK rat iv [T½ (h)] Mean Value” in series [2] is listed as 57.1 h. In series [2], the “PK rat sc [T½ (h)] Mean Value” turned out to be 73.2 h. In addition, the Average blood glucose in series [3] (time 0 days) came to 5.384 mM; in series [3] (time 0.041667 days) it was 5.768 mM; in series [3] (time 0.125 days), 4.808 mM; in series [3] (time 0.291667 days), 4.136 mM; in series [3] (time 1 day), 2.86 mM; in series [3] (time 2 days), 2.6 mM. Besides, the Average blood glucose in series [3] (time 3 days) turned out to be 3.536 mM; in series [3] (time 4 days), 5.544 mM; in series [3] (time 5 days) it was 5.684 mM; in series [3] (time 6 days), 5.796 mM; in series [3] (time 7 days), 6.056 mM; in series [3] (time 8 days) it was 5.672 mM. Moreover, the Average blood glucose came out at 5.62 mM in series [3] (time 9 days) and 6.308 mM in series [3] (time 10 days). In series [4], the “Lipogenesis in rat adipocytes [Potency (%)] Mean Value” is listed as 5.36%.

Regarding “(A14E, A21G, A22(GQEP)19, A98K^, A99P, B25H, B29R, desB30 human insulin)/(227A, 234A, 235K, 297E, 315Q, 384Q, des447 hIgG4-Fc(228-447))4-[bis[2-[(2-acetyl)amino]ethyl]amino]-4-oxo-butanoyl Conjugate [Example 5.12]”, in series [1], the “Insulin receptor affinity [IC50 relative to HI (%)] Mean Value” is 1.85%. In addition, the “PK rat iv [T½ (h)] Mean Value” in series [2] was 23.3 h. Moreover, the “PK rat sc [T½ (h)] Mean Value” in series [2] is on record as 25.1 h. Besides, the Average blood glucose in series [3] (time 0 days, listed as Ex 5.12) is 5.816 mM and 5.516 mM; in series [3] (time 0.041667 days, listed as Ex 5.12), 5.598 mM and 6.16 mM; in series [3] (time 0.125 days, listed as Ex 5.12), 5.674 mM and 4.608 mM; in series [3] (time 0.208333 days) it was 5.338 mM; in series [3] (time 0.291667 days, listed as Ex 5.12), 4.598 mM and 3.988 mM; in series [3] (time 1 day, listed as Ex 5.12) it was 2.986 mM and 2.88 mM. Besides, the Average blood glucose was 2.524 mM and 2.348 mM in series [3] (time 2 days, listed as Ex 5.12); 2.576 mM and 2.972 mM in series [3] (time 3 days, listed as Ex 5.12); 3.284 mM and 6.028 mM in series [3] (time 4 days, listed as Ex 5.12); 6.884 mM and 6.06 mM in series [3] (time 5 days, listed as Ex 5.12); 6.506 mM and 5.74 mM in series [3] (time 6 days, listed as Ex 5.12); 6.202 mM and 5.716 mM in series [3] (time 7 days, listed as Ex 5.12). Also, the Average blood glucose is 6.046 mM and 5.568 mM in series [3] (time 8 days, listed as Ex 5.12); 5.204 mM in series [3] (time 9 days); 5.556 mM in series [3] (time 10 days). Further, in series [4], the “Lipogenesis in rat adipocytes [Potency (%)] Mean Value” is 2.35%.

“A14E, A21G, A22(GQAPGQAPGQEP)6-GQAP, A98K^, A99P, B29R, desB30 human insulin/(227A, 234A, 235K, 297E, 315Q, 384Q, des447 hIgG4-Fc(228-447))4-[bis[2-[(2-acetyl)amino]ethyl]amino]-4-oxo-butanoyl Conjugate [Example 5.19]”: in series [1], the “Insulin receptor affinity [IC50 relative to HI (%)] Mean Value” was 4.00%. For the same substance, the “PK rat iv [T½ (h)] Mean Value” in series [2] is given as 30.8 h. Besides, the “PK rat sc [T½ (h)] Mean Value” in series [2] is listed as 55.0 h. Besides, the Average blood glucose is on record as 6.4 mM in series [3] (time 0 days); 5.988 mM in series [3] (time 0.041667 days); 4.92 mM in series [3] (time 0.125 days); 3.84 mM in series [3] (time 0.291667 days); 2.632 mM in series [3] (time 1 day); 2.62 mM in series [3] (time 2 days). Besides, the Average blood glucose in series [3] (time 3 days) is given as 4.312 mM; in series [3] (time 4 days) it was 6.104 mM; in series [3] (time 6 days) it was 5.9 mM; in series [3] (time 7 days) it was 6.128 mM; in series [3] (time 8 days), 5.512 mM. Moreover, the “Lipogenesis in rat adipocytes [Potency (%)] Mean Value” in series [4] was 3.02%.
